Assay results: ChEMBL document CHEMBL1221257, “Hit-to-lead optimization of a series of carboxamides of ethyl 2-amino-4-phenylthiazole-5-carboxylates as novel adenosine A2A receptor antagonists” (Bioorg Med Chem Lett, 2010)
pKi: −log10 of the molar value.

Tests used:
Adenosine receptor A2a [1] = molecular target: T1, Adenosine receptor A2a (Homo sapiens, UniProt P29274)
Description: Displacement of [3H]ZM241385 from human adenosine A2A receptor expressed in buculovirus system by liquid scintillation counting

Adenosine receptor A1 = molecular target: T2, Adenosine receptor A1 (Homo sapiens, UniProt P30542); assay: Displacement of [3H]DPCPX from human adenosine A1 receptor expressed in CHO cells by liquid scintillation counting; type: cell-based
T2 sequence (P30542 whole entry): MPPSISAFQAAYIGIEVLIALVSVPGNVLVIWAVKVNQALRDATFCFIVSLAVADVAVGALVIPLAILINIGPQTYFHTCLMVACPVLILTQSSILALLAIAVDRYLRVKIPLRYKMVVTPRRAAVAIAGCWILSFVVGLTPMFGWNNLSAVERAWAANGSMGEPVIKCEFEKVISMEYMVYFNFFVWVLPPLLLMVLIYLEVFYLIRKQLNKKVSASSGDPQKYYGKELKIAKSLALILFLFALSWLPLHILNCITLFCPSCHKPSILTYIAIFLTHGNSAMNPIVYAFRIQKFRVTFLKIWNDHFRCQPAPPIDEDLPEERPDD

Mus musculus [2] = assay: Reversal of haloperidol-induced hypolocomotion in po dosed NMRI mouse model of Parkinson's disease measured for 20 mins; type: functional
[3] = molecular target: T3, Adenosine receptor A1 (Homo sapiens) (UniProt P30542); assay: Displacement of [3H]DPCPX from human adenosine A1 receptor expressed in CHO cells at 10 uM by liquid scintillation counting; type: cell-based
T3 sequence (whole entry): T2 sequence (P30542 whole entry)

Adenosine receptor A2a [4] = molecular target: T1, Adenosine receptor A2a; assay: Displacement of [3H]ZM241385 from human adenosine A2A receptor expressed in buculovirus system at 10 uM by liquid scintillation counting
[5] = molecular target: T3, Adenosine receptor A1 (Homo sapiens); assay: Displacement of [3H]DPCPX from human adenosine A1 receptor expressed in CHO cells at 2000 nM by liquid scintillation counting; type: cell-based
Mus musculus [6] = assay: In-vivo displacement of [3H]SCH442416 from adenosine A2A receptor in po dosed NMRI mouse by liquid scintillation counting; type: functional

T1 sequence (P29274 whole entry): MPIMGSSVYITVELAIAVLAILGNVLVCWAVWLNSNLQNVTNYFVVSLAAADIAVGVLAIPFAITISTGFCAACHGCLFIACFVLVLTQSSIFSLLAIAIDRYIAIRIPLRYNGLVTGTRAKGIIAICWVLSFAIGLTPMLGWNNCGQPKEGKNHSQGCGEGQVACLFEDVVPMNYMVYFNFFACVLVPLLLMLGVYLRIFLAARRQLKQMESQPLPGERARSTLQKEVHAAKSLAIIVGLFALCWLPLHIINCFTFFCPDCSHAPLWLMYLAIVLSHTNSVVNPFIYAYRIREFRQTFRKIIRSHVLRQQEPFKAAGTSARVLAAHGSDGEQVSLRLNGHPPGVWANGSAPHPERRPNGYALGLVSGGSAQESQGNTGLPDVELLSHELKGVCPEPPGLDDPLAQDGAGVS

Compound	pKi (Adenosine receptor A2a [1])	pKi (Adenosine receptor A1)	also measured
CC(C)CC(=O)Nc1nc(-c2ccccc2)c(-c2ncon2)s1	6.47	7.11	–
N#Cc1sc(NC(=O)c2ccco2)nc1-c1ccccc1	6.54	–	–
CCn1c(=O)c2c(nc(/C=C/c3ccc(OC)c(OC)c3)n2C)n(CC)c1=O [ISTRADEFYLLINE]	–	5.52	ED50 (Mus musculus [2]): 0.13 mg/kg
Cc1nc(-c2sc(NC(=O)CC(C)C)nc2-c2ccccc2)no1	7.48	7.09	–
Cc1noc(-c2sc(NC(=O)c3ccco3)nc2-c2ccccc2)n1	6.70	6.57	–
Cc1nc(-c2sc(NC(=O)Cc3ccccc3)nc2-c2ccccc2)no1	7.60	6.59	–
CCS(=O)(=O)c1sc(NC(=O)c2ccco2)nc1-c1ccccc1	–	–	Activity (Adenosine receptor A2a [4]): 25%
COCCOc1ccc(N2CCN(CCn3ncc4c3nc(N)n3nc(-c5ccco5)nc43)CC2)cc1 [PRELADENANT]	8.30	< 6.00	Activity [5]: 30%; ED50 (Mus musculus [2]): 0.4 mg/kg
Cc1noc(-c2sc(NC(=O)C3CC3)nc2-c2ccccc2)n1	7.92	7.39	–
CCCC(=O)c1sc(NC(=O)c2ccco2)nc1-c1ccccc1	7.21	7.05	–
CCOCc1sc(NC(=O)c2ccco2)nc1-c1ccccc1	6.72	7.04	–
O=C(Nc1nc(-c2ccccc2)c(C(=O)O)s1)c1ccco1	–	–	Activity (Adenosine receptor A2a [4]): 0%
CC(=O)Nc1nc(-c2ccccc2)c(-c2nc(C)no2)s1	6.96	6.43	–
CCOC(=O)c1sc(NC(=O)c2ccco2)nc1-c1ccccc1	7.89	7.02	–
O=C(Nc1nc(-c2ccccc2)c(-c2ncon2)s1)C1CC1	6.92	6.51	–
Cc1nc(-c2sc(NC(=O)C3CC3)nc2-c2ccccc2)no1	7.55	6.82	ED50 (Mus musculus [6]): 5.8 mg/kg; Activity (Mus musculus [2]): Dose-dependent effect; ED50 (Mus musculus [2]): 7 mg/kg
Cc1noc(-c2sc(NC(=O)CC(C)C)nc2-c2ccccc2)n1	7.32	7.57	–
CCNC(=O)c1sc(NC(=O)c2ccco2)nc1-c1ccccc1	–	–	Activity (Adenosine receptor A2a [4]): 37%

Continued, in another order:

pKi (Adenosine receptor A2a [1])	pKi (Adenosine receptor A1)	Compound	also measured
6.15	6.11	Cc1nc(-c2sc(NC(=O)c3ccco3)nc2-c2ccccc2)no1	–
7.08	–	Cc1nc(-c2sc(NC(=O)c3ccccc3)nc2-c2ccccc2)no1	Activity [3]: 45%
6.39	6.64	O=C(Nc1nc(-c2ccccc2)c(-c2ncon2)s1)c1ccco1	–
7.11	6.68	CCn1nnc(-c2sc(NC(=O)C3CC3)nc2-c2ccccc2)n1	–
7.24	6.47	Cc1noc(-c2sc(NC(=O)Cc3ccccc3)nc2-c2ccccc2)n1	–
6.15	5.77	O=C(Cc1ccccc1)Nc1nc(-c2ccccc2)c(-c2ncon2)s1	–
6.66	–	CCn1nnc(-c2sc(NC(=O)c3ccccc3)nc2-c2ccccc2)n1	Activity [3]: 65%
7.03	6.19	CCn1nnc(-c2sc(NC(=O)c3ccco3)nc2-c2ccccc2)n1	–
6.72	–	CC(=O)Nc1nc(-c2ccccc2)c(-c2noc(C)n2)s1	Activity [3]: 76%
7.35	5.80	CCn1nnc(-c2sc(NC(=O)Cc3ccc(OC)c(OC)c3)nc2-c2ccccc2)n1	–
6.72	6.74	Cc1noc(-c2sc(NC(=O)c3ccccc3)nc2-c2ccccc2)n1	–
6.34	5.92	CCn1nnc(-c2sc(NC(=O)Cc3ccccc3)nc2-c2ccccc2)n1	–
6.48	6.52	O=C(Nc1nc(-c2ccccc2)c(-c2ncon2)s1)c1ccccc1	–
